The values below come from US10759766B2, “Certain chemical entities, compositions, and methods” (NeuPharma, Inc., priority 2011, dated 2020).

One experiment deals with BRAF V600E (Homo sapiens (Human), UniProt P15056, V600E). Kind of experiment: Z′-LYTE kinase inhibition assay (Invitrogen), BRAF V600E. Type of experiment: biochemical. To be noted: Z′-LYTE method; for inhibition at 1 µM: 1 μM compound, read-out: % inhibition at 1 μM against BRAF V600E. Here is the method: (§1) Inhibitory activities Inhibitory activities of compounds against BRAF, and BRAF V600E were measured by Invitrogen using Z′-LYTE® Method as briefly described in the following. 4× Test compounds are dissolved in 1% DMSO. […] ATP solutions are diluted to a 4×ATP working concentration in Kinase Buffer (50 mM HEPES pH 7.5, 0.01% BRIJ-35, 10 mM MgCl2, 1 mM EGTA). Reaction started by 30-second shaking of mixture consisting of 2.5 μL 4× test compound, […] and 2.5 μL 4×ATP Solution on Bar-coded Corning, low volume NBS, black 384-well plate (Corning Cat. #3676). Then the mixture was incubated for 60-minute at room temperature for the kinase reaction, followed by addition of 5 μL of a 1:1024 dilution of development reagent A and 30-second plate shake. The mixture was then incubated for another 60-minute at room temperature for development reaction. Fluorescence was read by plate reader. IC50 was calculated by plotting the concentration of compound vs the percentage of inhibition in treated wells using GraphPad Prism 5.
Sequence of BRAF V600E (P15056 whole entry V600E): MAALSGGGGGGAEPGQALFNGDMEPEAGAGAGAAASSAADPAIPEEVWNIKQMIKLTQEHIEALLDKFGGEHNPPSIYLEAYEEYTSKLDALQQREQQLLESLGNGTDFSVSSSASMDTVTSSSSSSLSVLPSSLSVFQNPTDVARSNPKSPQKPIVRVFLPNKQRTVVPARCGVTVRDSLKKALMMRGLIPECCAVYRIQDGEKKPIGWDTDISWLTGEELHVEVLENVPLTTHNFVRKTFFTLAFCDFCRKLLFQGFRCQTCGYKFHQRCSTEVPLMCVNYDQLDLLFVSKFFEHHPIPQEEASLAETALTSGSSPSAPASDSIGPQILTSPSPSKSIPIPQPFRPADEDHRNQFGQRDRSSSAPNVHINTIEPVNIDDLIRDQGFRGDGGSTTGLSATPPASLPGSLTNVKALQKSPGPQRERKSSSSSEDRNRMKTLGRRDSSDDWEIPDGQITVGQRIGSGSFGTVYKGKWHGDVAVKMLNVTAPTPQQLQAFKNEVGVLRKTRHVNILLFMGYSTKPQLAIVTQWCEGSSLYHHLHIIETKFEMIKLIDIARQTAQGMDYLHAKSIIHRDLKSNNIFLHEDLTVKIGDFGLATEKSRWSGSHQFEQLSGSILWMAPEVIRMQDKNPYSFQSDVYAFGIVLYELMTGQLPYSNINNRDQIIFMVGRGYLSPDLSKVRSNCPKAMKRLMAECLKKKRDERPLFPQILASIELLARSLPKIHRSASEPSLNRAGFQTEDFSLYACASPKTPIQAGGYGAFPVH
The scale utilized in Table 3 is as follows: +++ less than 100 nM; and ++ greater than 100 nM.

Another experiment has as its target KDR (VEGFR2) (Homo sapiens (Human), UniProt P35968). Kind of experiment: Z′-LYTE kinase inhibition assay (Invitrogen), KDR. Type of experiment: biochemical. To be noted: Z′-LYTE method; for inhibition at 1 µM: 1 μM compound, read-out: % inhibition at 1 μM against KDR. Here is the method:
as §1
Inhibitory activities of compounds against KDR (VEGFR2) were also measured by Invitrogen using Z′-LYTE® Method as described above with the following modification. The 2× KDR (VEGFR2)/Tyr 01 mixture is prepared in 50 mM HEPES pH 7.5, 0.01% BRIJ-35, 10 mM MgCl2, 1 mM EGTA. The final 10 μL Kinase Reaction consists of 0.5-11.7 ng KDR (VEGFR2) and 2 μM Tyr 01 in 50 mM HEPES pH 7.5, 0.01% BRIJ-35, 10 mM MgCl2, 1 mM EGTA. After the 1 hour Kinase Reaction incubation, 5 μL of a 1:256 dilution of Development Reagent B is added.
The scale utilized in Table 5 is as follows: +++ less than 100 nM; and ++ greater than 100 nM

For another experiment, the system named is A375 cells. Kind of experiment: Inhibition of cancer cell growth, MTT assay, A375. Type of experiment: cell-based. To be noted: Homo sapiens, A-375, 72 h exposure. On the procedure: (§2) Inhibition of cell growth by compounds was measured using MTT assay (Mosmann, T., Journal of Immunological Methods, 1983, 65, 55-63). Tumor cell lines were purchased from ATCC (American Type Culture Collection, Manassas, Va.). All cell lines were maintained in RPMI 1640 (Hyclone) supplemented with 10% fetal bovine serum (FBS, Hyclone), glutamine (2 mM, Hyclone), and antibiotics (penicillin 100 U/mL and streptomycin 50 μg/mL) at 37° C. in a humidified atmosphere of 5% CO2 in air. Taxol (as a positive control, Sigma) and compounds were dissolved in DMSO (Sigma), and the final concentration of DMSO in the medium was 1%. Tumor cells were plated in 96-well plates at densities of about 4000 cells/well of a 96-well plate and allowed to adhere/grow for 24 h. They were then treated with various concentrations of drug for 72 h. 3-(4,5-Dimethylthiazol-2-yl)-2,5-diphenyltetrazolium bromide (MTT, Sigma) was used to determine the number of viable cells at the time of compound addition and the number of cells remaining after 72 h compound exposure. The number of cells remaining after 72 h was compared to the number of viable cells at the time of compound addition by measuring the absorbance at 570 nm, allowing for the calculation of growth inhibition.
(§3) All concentrations of compounds were tested in triplicate and controls were averaged over 4 wells. IC50 was calculated by plotting the concentration of compound vs the percentage of inhibition in treated wells using GraphPad Prism 5. […] The scale utilized in Table 6 is as follows: +++ less than 1000 nM; ++ between 1000 nM and 5000 nM; and + greater than 5000 nM. The scale utilized in Table 7 is as follows: +++ less than 2000 nM; ++ between 2000 nM and 5000 nM; and + greater than 5000 nM.

The next experiment concerns A549 cells. Kind of experiment: Inhibition of cancer cell growth, MTT assay, A549. Type of experiment: cell-based. To be noted: Homo sapiens, A549, 72 h exposure. Here is the method: as §2, §3

SMILES strings stand for the structures.

Sequence of KDR (VEGFR2) (P35968 20-1356): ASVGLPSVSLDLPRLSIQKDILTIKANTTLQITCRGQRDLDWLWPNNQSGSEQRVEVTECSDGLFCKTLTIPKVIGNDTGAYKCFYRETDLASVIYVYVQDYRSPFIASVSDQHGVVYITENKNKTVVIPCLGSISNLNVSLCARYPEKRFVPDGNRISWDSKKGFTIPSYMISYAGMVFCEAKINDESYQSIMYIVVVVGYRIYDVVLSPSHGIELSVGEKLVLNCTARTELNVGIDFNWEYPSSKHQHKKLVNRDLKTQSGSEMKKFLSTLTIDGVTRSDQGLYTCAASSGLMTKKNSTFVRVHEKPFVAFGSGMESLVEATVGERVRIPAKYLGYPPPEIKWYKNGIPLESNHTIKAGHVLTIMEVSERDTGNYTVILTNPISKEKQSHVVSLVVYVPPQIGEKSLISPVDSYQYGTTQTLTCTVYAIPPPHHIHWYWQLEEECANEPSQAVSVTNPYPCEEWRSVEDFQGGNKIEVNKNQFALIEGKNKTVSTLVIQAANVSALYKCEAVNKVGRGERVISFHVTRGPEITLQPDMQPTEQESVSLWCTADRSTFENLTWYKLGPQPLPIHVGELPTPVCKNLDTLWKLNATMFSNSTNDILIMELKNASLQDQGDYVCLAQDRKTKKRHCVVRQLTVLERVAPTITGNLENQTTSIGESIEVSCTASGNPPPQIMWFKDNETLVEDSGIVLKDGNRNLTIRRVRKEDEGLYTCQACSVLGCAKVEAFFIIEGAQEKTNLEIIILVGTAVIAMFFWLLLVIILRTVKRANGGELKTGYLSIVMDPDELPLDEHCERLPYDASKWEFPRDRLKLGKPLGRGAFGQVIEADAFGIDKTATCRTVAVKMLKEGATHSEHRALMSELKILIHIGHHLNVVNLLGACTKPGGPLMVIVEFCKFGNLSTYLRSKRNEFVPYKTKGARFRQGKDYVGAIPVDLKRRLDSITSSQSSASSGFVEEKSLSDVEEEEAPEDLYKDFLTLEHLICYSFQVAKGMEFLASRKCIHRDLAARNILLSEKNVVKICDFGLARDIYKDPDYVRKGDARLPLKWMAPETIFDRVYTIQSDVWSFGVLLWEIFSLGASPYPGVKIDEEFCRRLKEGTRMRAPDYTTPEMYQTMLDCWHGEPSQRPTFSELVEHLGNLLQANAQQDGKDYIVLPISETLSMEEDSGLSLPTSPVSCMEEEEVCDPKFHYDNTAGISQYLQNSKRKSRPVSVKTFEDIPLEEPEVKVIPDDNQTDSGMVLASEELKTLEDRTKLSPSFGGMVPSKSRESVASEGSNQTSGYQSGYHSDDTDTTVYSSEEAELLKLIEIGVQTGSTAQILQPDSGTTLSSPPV

With `O=C(Nc1cccc(Cl)c1)Nc1ccc(F)c(C(=O)c2ccc3ncc(N4CCOCC4)nc3c2)c1` [Compound C056, 1-(3-chlorophenyl)-3-(4-fluoro-3-(3-morpholinoquinoxaline-6-carbonyl)phenyl)urea], the inhibition at 1 µM at BRAF V600E and on KDR (VEGFR2) was > 89% in each case. Further, the IC50 was < 1 µM with A375 cells and 2 to 5 µM with A549 cells.

Consider `O=C(Nc1ccc(Cl)c(C(F)(F)F)c1)Nc1ccc(F)c(C(=O)c2ccc3nccnc3c2)c1F` [Compound C012, 1-(4-chloro-3-(trifluoromethyl)phenyl)-3-(2,4-difluoro-3-(quinoxaline-6-carbonyl)phenyl)urea], for which the inhibition at 1 µM at BRAF V600E and at KDR (VEGFR2) was < 70% throughout. Also, the concentration for half-maximal inhibition (IC50) was 1 to 5 µM in the experiment with A375 cells and < 2 µM in the experiment with A549 cells.

Turning to `O=C(Nc1ccc(F)c(Cl)c1)Nc1ccc(F)c(C(=O)c2ccc3nccnc3c2)c1` [Compound C073, 1-(3-chloro-4-fluorophenyl)-3-(4-fluoro-3-(quinoxaline-6-carbonyl)phenyl)urea], the inhibition at 1 µM at BRAF V600E and on KDR (VEGFR2) was > 89% each time. Moreover, the IC50 was 1 to 5 µM in the experiment on A375 cells and > 5 µM with A549 cells.

`O=C(Nc1cc(F)cc(C(=O)c2ccc3nccnc3c2)c1)Nc1ccc(F)c(F)c1` [Compound C065, 1-(3,4-difluorophenyl)-3-(3-fluoro-5-(quinoxaline-6-carbonyl)phenyl)urea]: the values for the inhibition at 1 µM on BRAF V600E and on KDR (VEGFR2) were > 89% and < 70%, respectively. The IC50 in the experiment with A375 cells and in the experiment on A549 cells was > 5 µM in each case.

As to `O=C(Nc1cccc(C(=O)c2ccc3ncc(N4CCOCC4)nc3c2)c1)c1ccc(Cl)c(C(F)(F)F)c1` [Compound C120, 4-chloro-N-(3-(3-morpholinoquinoxaline-6-carbonyl)phenyl)-3-(trifluoromethyl)benzamide], the inhibition at 1 µM was > 89% on BRAF V600E and 70 to 89% at KDR (VEGFR2). The IC50 fell in the range of 1 to 5 µM with A375 cells and 2 to 5 µM in the experiment with A549 cells.

As to `O=C(Nc1cc(F)cc(C(=O)c2ccc3ncc(N4CCOCC4)nc3c2)c1)Nc1ccc(Cl)c(Cl)c1` [Compound C050, 1-(3,4-dichlorophenyl)-3-(3-fluoro-5-(3-morpholinoquinoxaline-6-carbonyl)phenyl)urea], the inhibition at 1 µM at BRAF V600E was > 89%; at KDR (VEGFR2), 70 to 89%. Also, the figures for the IC50 in the experiment on A375 cells and with A549 cells were < 1 µM and < 2 µM, respectively.

As to `O=C(Nc1cccc(F)c1)Nc1cccc(C(=O)c2ccc3ncc(N4CCOCC4)nc3c2)c1` [Compound C016, 1-(3-fluorophenyl)-3-(3-(3-morpholinoquinoxaline-6-carbonyl)phenyl)urea], the inhibition at 1 µM at BRAF V600E is > 89%; at KDR (VEGFR2), 70 to 89%. The half-inhibitory concentration (IC50) is < 100 nM at BRAF V600E (read-out: IC50 against BRAF V600E), > 100 nM on KDR (VEGFR2) (read-out: IC50 against KDR), > 5 µM in the experiment on A375 cells and > 5 µM with A549 cells.

Regarding `O=C(Nc1cc(F)cc(C(=O)c2ccc3nccnc3c2)c1)c1cccc(F)c1` [Compound C125, 3-fluoro-N-(3-fluoro-5-(quinoxaline-6-carbonyl)phenyl)benzamide], the inhibition at 1 µM on BRAF V600E and at KDR (VEGFR2) was < 70% each time. Moreover, the IC50 in the experiment with A375 cells and with A549 cells was > 5 µM each time.

With `O=C(Nc1cc(F)cc(C(=O)c2ccc3nccnc3c2)c1)Nc1ccc(Cl)c(F)c1` [Compound C061, 1-(4-chloro-3-fluorophenyl)-3-(3-fluoro-5-(quinoxaline-6-carbonyl)phenyl)urea], the inhibition at 1 µM on BRAF V600E was > 89%; on KDR (VEGFR2), < 70%. Also, the IC50 in the experiment with A375 cells was > 5 µM; in the experiment with A549 cells, 2 to 5 µM.

On to `O=C(Nc1cc(F)cc(C(=O)c2ccc3ncc(N4CCOCC4)nc3c2)c1)Nc1ccc(F)c(F)c1` [Compound C049, 1-(3,4-difluorophenyl)-3-(3-fluoro-5-(3-morphlinoquinoxaline-6-carbonyl)phenyl)urea], for which the inhibition at 1 µM is > 89% at BRAF V600E and < 70% on KDR (VEGFR2). For the same molecule, the IC50 in the experiment with A375 cells lay within 1 to 5 µM; in the experiment on A549 cells, 2 to 5 µM.

As to `O=C(Nc1ccc(Cl)cc1)Nc1ccc(F)c(C(=O)c2ccc3ncc(N4CCOCC4)nc3c2)c1` [Compound C054, 1-(4-chlorophenyl)-3-(4-fluoro-3-(3-morpholinoquinoxaline-6-carbonyl)phenyl)urea], the inhibition at 1 µM on BRAF V600E and at KDR (VEGFR2) was > 89% in each case. The results for the IC50 in the experiment with A375 cells and in the experiment with A549 cells were < 1 µM and < 2 µM, respectively.

For `COc1cnc2ccc(C(=O)c3cc(NC(=O)Nc4cccc(F)c4)ccc3F)cc2n1` [Compound C083, 1-(4-fluoro-3-(3-methoxyquinoxaline-6-carbonyl)phenyl)-3-(3-fluorophenyl)urea], the inhibition at 1 µM on BRAF V600E was > 89%; on KDR (VEGFR2) it was 70 to 89%. For the same molecule, the IC50 is 1 to 5 µM in the experiment on A375 cells and > 5 µM in the experiment with A549 cells.

Turning to `O=C(Nc1cc(F)c(F)c(C(=O)c2ccc3ncc(N4CCOCC4)nc3c2)c1F)c1ccc(Cl)c(C(F)(F)F)c1` [Compound C139], the inhibition at 1 µM at BRAF V600E and at KDR (VEGFR2) was < 70% in each case. Moreover, the 50% inhibitory concentration (IC50) with A375 cells and with A549 cells was > 5 µM each time.

For the molecule `O=C(Nc1cc(F)c(F)c(C(=O)c2ccc3nccnc3c2)c1F)c1ccc(Cl)c(C(F)(F)F)c1` [Compound C140, 4-chloro-N-(2,4,5-trifluoro-3-(quinoxaline-6-carbonyl)phenyl)-3-(trifluoromethyl)benzamide], the results for the inhibition at 1 µM on BRAF V600E and at KDR (VEGFR2) were 70 to 89% and < 70%, respectively. Further, the IC50 in the experiment on A375 cells and in the experiment on A549 cells was > 5 µM each time.

For `NCCNc1cnc2ccc(C(=O)c3cc(NC(=O)Nc4cccc(F)c4)ccc3F)cc2n1` [Compound C088, 1-(3-(3-((2-aminoethyl)amino)quinoxaline-6-carbonyl)-4-fluorophenyl)-3-(3-fluorophenyl)urea], the inhibition at 1 µM at BRAF V600E and on KDR (VEGFR2) was > 89% in each case. The values for the IC50 in the experiment on A375 cells and in the experiment on A549 cells were 1 to 5 µM and > 5 µM, respectively.

In the case of `O=C(Nc1cccc(F)c1)Nc1ccc(F)c(C(=O)c2ccc3nccnc3c2)c1F` [Compound C011, 1-(2,4-difluoro-3-(quinoxaline-6-carbonyl)phenyl)-3-(3-fluorophenyl)urea], the inhibition at 1 µM at BRAF V600E was 70 to 89%; at KDR (VEGFR2), < 70%. Moreover, the IC50 in the experiment with A375 cells and with A549 cells was > 5 µM in each case.

Consider `O=C(Nc1cc(F)cc(Cl)c1)Nc1ccc(F)c(C(=O)c2ccc3ncc(N4CCOCC4)nc3c2)c1` [Compound C059, 1-(3-chloro-5-fluorophenyl)-3-(4-fluoro-3-(3-morpholinoquinoxaline-6-carbonyl)phenyl)urea], for which the figures for the inhibition at 1 µM at BRAF V600E and at KDR (VEGFR2) were > 89% and 70 to 89%, respectively. Also, the IC50 with A375 cells was 1 to 5 µM; with A549 cells, 2 to 5 µM.

On to `O=C(Nc1cc(F)c(F)c(C(=O)c2ccc3nccnc3c2)c1)c1cccc(C(F)(F)F)c1` [Compound C128, N-(3,4-difluoro-5-(quinoxaline-6-carbonyl)phenyl)-3-(trifluoromethyl)benzamide], for which the inhibition at 1 µM at BRAF V600E was > 89%; at KDR (VEGFR2), 70 to 89%. Moreover, the results for the IC50 in the experiment on A375 cells and in the experiment on A549 cells were 1 to 5 µM and > 5 µM, respectively.
